How the values were obtained:
[1] = system: A549; assay: Cytotoxicity against human A549 cells after 48 hrs by MTT assay; format: functional, cell-based; settings: A549, 48 h
[2] = system: PC-3; assay: Cytotoxicity against human PC3 cells after 48 hrs by MTT assay; format: functional, cell-based; settings: PC-3, 48 h
[3] = system: A-431; assay: Cytotoxicity against human A431 cells after 48 hrs by MTT assay; format: functional, cell-based; settings: A-431, 48 h
[4] = system: PANC-1; assay: Antitumor activity against human PANC1 cells xenografted in po dosed mouse assessed as tumor growth inhibition administered qd for 13 days measured up to 21 days; format: functional, organism-based
[5] = system: PANC-1; assay: Antitumor activity against human PANC1 cells xenografted in mouse assessed as tumor growth inhibition at 25 mg/kg, po qd for 13 days measured up to 21 days; format: functional; settings: read-out: TGI
[6] = system: PANC-1; assay: Antitumor activity against human PANC1 cells xenografted in mouse assessed as tumor growth inhibition at 5 mg/kg, po qd for 13 days measured up to 21 days; format: functional; settings: read-out: TGI

| Compound | IC50 [1] | IC50 [2] | IC50 [3] | TGI [4] | inhibition in vivo at 25 mg/kg [5] | inhibition in vivo at 5 mg/kg [6] |
| --- | --- | --- | --- | --- | --- | --- |
| O=C(Nc1nc2ccc(N3C(=O)Cc4ccccc4C3=O)cc2s1)C1CC1 | 22.3 µM | 16.7 µM | 46.8 µM | – | – | – |
| COc1ccc2c(c1)CC(=O)N(c1ccc3nc(NC(=O)C4CC4)sc3c1)C2=O | 20.7 µM | 10.5 µM | 12 µM | – | – | – |
| COc1ccc(N2C(=O)Cc3cc(OC)cc(OC)c3C2=O)cc1 | > 100 µM | > 100 µM | 78.9 µM | – | – | – |
| COc1cc2c(c(OC)c1)C(=O)N(c1ccc3nc(NC(C)=O)sc3c1)C(=O)C2 | 20.5 µM | 11.2 µM | 11.9 µM | – | – | – |
| C#Cc1cccc(N2C(=O)Cc3cc(OC)cc(OC)c3C2=O)c1 | > 100 µM | 28.9 µM | 60.4 µM | – | – | – |
| COc1cc2c(c(OC)c1)C(=O)N(c1ccc(C)cc1)C(=O)C2 | 43.6 µM | 21 µM | 47.6 µM | – | – | – |
| COc1cc2c(c(OC)c1)C(=O)N(c1cccc(C(F)(F)F)c1)C(=O)C2 | > 100 µM | 45.3 µM | 62.5 µM | – | – | – |
| COc1cc2c(c(OC)c1)C(=O)N(c1ccc(C(F)(F)F)cc1)C(=O)C2 | 32.1 µM | 17.1 µM | 32.8 µM | – | – | – |
| O=C(Nc1ccc2nc(NC(=O)C3CC3)sc2c1)c1c(Cl)cccc1Cl | 9 µM | 2.01 µM | – | – | – | – |
| COc1cc2c(c(OC)c1)C(=O)N(c1ccc3nc(NC(=O)C4CC4)sc3c1)C(=O)C2 | 12.7 µM | 7.7 µM | 7.01 µM | Dose-dependent effect | 31.5% | 23.7% |
| COc1cc2c(c(OC)c1OC)C(=O)N(c1ccc3nc(NC(=O)C4CC4)sc3c1)C(=O)C2 | 16.2 µM | 20.6 µM | 7.58 µM | – | – | – |
| O=C(Nc1nc2ccc(N3C(=O)Cc4ccc(F)cc4C3=O)cc2s1)C1CC1 | 12.6 µM | 11.7 µM | 8.64 µM | – | – | – |
